Measurements published in patent EP0326331B1, “Substituted quinolines and cinnolines” (Dow AgroSciences LLC, priority 1988, dated 1989).

Assays:
Format in all cases: in vivo
[1] = test system: Erysiphe graminis tritici (powdery mildew); assay: Test 1 greenhouse foliar spray screen, powdery mildew on wheat; details: Blumeria graminis, foliar, Test 1, foliar spray on wheat; disease control rating at 400 ppm / 100 ppm; read-out: POWD MDEW
[2] = test system: Pyricularia oryzae (rice blast); assay: whole plant or invertebrate; details: Pyricularia oryzae, foliar, read-out: RICE BLAST, Test 1, foliar spray on rice; disease control rating at 400 ppm / 100 ppm
[3] = test system: Puccinia recondita tritici (leaf rust); assay: Test 1 greenhouse foliar spray screen, leaf rust on wheat; details: Puccinia recondita, foliar, Test 1, foliar spray on wheat; disease control rating at 400 ppm / 100 ppm
[4] = test system: Botrytis cinerea (gray mold); assay: Test 1 greenhouse foliar spray screen, gray mold on grape berries; details: Botrytis cinerea, foliar; Test 1, spray on grape berries; disease control rating at 400 ppm / 100 ppm
[5] = test system: Pseudoperonospora cubensis (downy mildew); assay: Test 1 greenhouse foliar spray screen, downy mildew on squash; details: Pseudoperonospora cubensis, foliar, Test 1, foliar spray on squash; disease control rating at 400 ppm / 100 ppm; read-out: DOWN MDEW
[6] = test system: southern armyworm (Spodopetra eridania Cramer); assay: Mite/insect screen, SAW; details: Spodoptera eridania, foliar, percent mortality, foliar spray on squash, read-out: SAW RESULTS %; for mortality at 200 ppm: rate 200 ppm; for mortality at 400 ppm: rate 400 ppm
Summary of the method: (§1)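 First, each compound was dissolved in an emulsifier-containing acetone/alcohol mixture and diluted with water. Next, leaves were sprayed until runoff and left to dry for an hour. For southern armyworm, two excised uninfested leaves went into a Petri dish with larvae; percent mortality followed standard exposure periods.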

[7] = test system: Twospotted spider mites (Tetranychus urticae Koch); assay: Mite/insect screen, SM; details: for mortality at 200 ppm / mortality at 400 ppm: Tetranychus urticae, foliar, percent mortality, foliar spray on squash, read-out: SM RESULTS %; for mortality at 200 ppm: rate 200 ppm; for mortality at 400 ppm: rate 400 ppm; for activity as miticides: summary statement in the description
Summary of the method: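 Read-out: percent mortality after standard exposure periods. Test solutions were water dilutions of compound dissolved in acetone/alcohol (50:50) with emulsifier blends; leaves were sprayed to runoff on both surfaces and air-dried for one hour before exposure.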

[8] = test system: melon aphids (Aphis gossypii Glover); assay: Mite/insect screen, MA; details: Aphis gossypii, foliar, percent mortality, foliar spray on squash, read-out: MA RESULTS %; for mortality at 200 ppm: rate 200 ppm; for mortality at 400 ppm: rate 400 ppm
Summary of the method: as §1

corn rootworm = assay: Mite/insect screen, CRW; details: percent mortality, read-out: CRW RESULTS %; for mortality at 12 ppm: CRW rate 12.00 ppm; for mortality at 24 ppm: CRW rate 24.00 ppm
Summary of the method: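 Stock in acetone:alcohol 1:1 + TOXIMUL R 23 g/L + TOXIMUL S 13 g/L; diluted with water to indicated concentrations; mortality (%) after standard exposure.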

Cc1ccc(CCOc2ccnc3cc(Cl)ccc23)cc1 [Example 204, 7-chloro-4-[2-(4-methylphenyl)ethoxy]quinoline]
pest or weed control at 400 ppm [1]: 20 to 89%
pest or weed control at 400 ppm [2]: 0 to 19%
pest or weed control at 400 ppm [3]: 20 to 89%
pest or weed control at 400 ppm [4]: 0 to 19%
pest or weed control at 400 ppm [5]: 20 to 89%
mortality at 200 ppm [6]: 0%
mortality at 400 ppm [6]: 100%
mortality at 200 ppm [7]: 0%
mortality at 400 ppm [7]: 0%
mortality at 200 ppm [8]: 0%
mortality at 400 ppm [8]: 50%
mortality at 12 ppm (corn rootworm): 0%
mortality at 24 ppm (corn rootworm): 0%

Cc1ccccc1CCOc1ccnc2c(F)cccc12 [Example 205, 8-fluoro-4-[2-(2-methylphenyl)ethoxy]quinoline]
pest or weed control at 400 ppm [1]: 90 to 100%
pest or weed control at 400 ppm [2]: 90 to 100%
pest or weed control at 400 ppm [3]: 90 to 100%
pest or weed control at 400 ppm [4]: 0 to 19%
pest or weed control at 400 ppm [5]: 90 to 100%
mortality at 400 ppm [6]: 0%
mortality at 400 ppm [7]: 0%
mortality at 400 ppm [8]: 0%
mortality at 24 ppm (corn rootworm): 0%

CC(Cc1ccccc1)Oc1ccnc2c(F)cccc12 (centres unmarked) [Example 214, 8-fluoro-4-[1-(phenylmethyl)ethoxy]quinoline]
pest or weed control at 400 ppm [1]: 20 to 89%
pest or weed control at 400 ppm [2]: 90 to 100%
pest or weed control at 400 ppm [3]: 20 to 89%
pest or weed control at 400 ppm [4]: 0 to 19%
pest or weed control at 400 ppm [5]: 90 to 100%
mortality at 400 ppm [6]: 0%
mortality at 400 ppm [7]: 0%
mortality at 400 ppm [8]: 0%
mortality at 24 ppm (corn rootworm): 0%

Clc1ccc(CCOc2ccnc3c(Br)cccc23)cc1 [Example 215, 8-bromo-4-[2-(4-chlorophenyl)ethoxy]quinoline]
pest or weed control at 400 ppm [1]: 0 to 19%
pest or weed control at 400 ppm [2]: 20 to 89%
pest or weed control at 400 ppm [3]: 20 to 89%
pest or weed control at 400 ppm [4]: 0 to 19%
pest or weed control at 400 ppm [5]: 90 to 100%
mortality at 400 ppm [6]: 0%
mortality at 400 ppm [7]: 100%
mortality at 400 ppm [8]: 100%
mortality at 24 ppm (corn rootworm): 0%

Clc1ccccc1CCOc1ccnc2c(Cl)cccc12 [Example 216, 8-chloro-4-[2-(2-chlorophenyl)ethoxy]quinoline]
pest or weed control at 400 ppm [1]: 90 to 100%
pest or weed control at 400 ppm [2]: 90 to 100%
pest or weed control at 400 ppm [3]: 90 to 100%
pest or weed control at 400 ppm [4]: 0 to 19%
pest or weed control at 400 ppm [5]: 90 to 100%
mortality at 400 ppm [6]: 0%
mortality at 400 ppm [7]: 0%
mortality at 400 ppm [8]: 0%
mortality at 24 ppm (corn rootworm): 100%

CC(C)c1ccccc1CCOc1ccnc2c(F)cccc12 [Example 217, 8-fluoro-4-[2-(2-(1-methylethyl)phenyl)ethoxy]quinoline]
pest or weed control at 400 ppm [1]: 90 to 100%
pest or weed control at 400 ppm [2]: 90 to 100%
pest or weed control at 400 ppm [3]: 90 to 100%
pest or weed control at 400 ppm [4]: 0 to 19%
pest or weed control at 400 ppm [5]: 90 to 100%
mortality at 400 ppm [6]: 0%
mortality at 400 ppm [7]: 0%
mortality at 400 ppm [8]: 0%
mortality at 24 ppm (corn rootworm): 0%

Fc1cccc2c(OCCc3cccc(Sc4ccccc4)c3)ccnc12 [Example 218, 8-fluoro-4-[2-(3-(phenylthio)phenyl)ethoxy]quinoline]
pest or weed control at 400 ppm [1]: 90 to 100%
pest or weed control at 400 ppm [2]: 90 to 100%
pest or weed control at 400 ppm [3]: 90 to 100%
pest or weed control at 400 ppm [4]: 0 to 19%
pest or weed control at 400 ppm [5]: 90 to 100%
mortality at 400 ppm [6]: 100%
mortality at 400 ppm [7]: 0%
mortality at 400 ppm [8]: 0%
mortality at 24 ppm (corn rootworm): 0%

Fc1cccc2c(OCCc3ccc(Br)cc3)ccnc12 [Example 223, 4-[2-(4-bromophenyl)ethoxy]-8-fluoroquinoline]
pest or weed control at 400 ppm [1]: 90 to 100%
pest or weed control at 400 ppm [2]: 90 to 100%
pest or weed control at 400 ppm [3]: 90 to 100%
pest or weed control at 400 ppm [4]: 0 to 19%
pest or weed control at 400 ppm [5]: 0 to 19%
mortality at 200 ppm [6]: 0%
mortality at 400 ppm [6]: 0%
mortality at 200 ppm [7]: 0%
mortality at 400 ppm [7]: 0%
mortality at 200 ppm [8]: 80%
mortality at 400 ppm [8]: 100%
mortality at 12 ppm (corn rootworm): 80%
mortality at 24 ppm (corn rootworm): 0%

Clc1ccc(CCOc2ccnc3cc(Cl)ccc23)cc1 [Example 226, 7-chloro-4-[2-(4-chlorophenyl)ethoxy]quinoline]
pest or weed control at 400 ppm [1]: 20 to 89%
pest or weed control at 400 ppm [2]: 0 to 19%
pest or weed control at 400 ppm [3]: 20 to 89%
pest or weed control at 400 ppm [4]: 0 to 19%
pest or weed control at 400 ppm [5]: 20 to 89%
mortality at 200 ppm [6]: 0%
mortality at 400 ppm [6]: 0%
mortality at 200 ppm [7]: 0%
mortality at 400 ppm [7]: 0%
mortality at 200 ppm [8]: 0%
mortality at 400 ppm [8]: 0%
mortality at 12 ppm (corn rootworm): 0%
mortality at 24 ppm (corn rootworm): 0%

Cc1cc(C)c(CCOc2ccnc3c(F)cccc23)c(C)c1 [Example 227, 8-fluoro-4-[2-(2,4,6-trimethylphenyl)ethoxy]quinoline]
pest or weed control at 400 ppm [1]: 0 to 19%
pest or weed control at 400 ppm [2]: 20 to 89%
pest or weed control at 400 ppm [3]: 20 to 89%
pest or weed control at 400 ppm [4]: 0 to 19%
pest or weed control at 400 ppm [5]: 0 to 19%
mortality at 200 ppm [6]: 0%
mortality at 400 ppm [6]: 0%
mortality at 200 ppm [7]: 0%
mortality at 400 ppm [7]: 0%
mortality at 200 ppm [8]: 0%
mortality at 400 ppm [8]: 0%
mortality at 12 ppm (corn rootworm): 0%
mortality at 24 ppm (corn rootworm): 0%

CC(C)(C)c1ccc(CCOc2ccnc3cc(Cl)ccc23)cc1 [Example 231, 7-chloro-4-[2-(4-(t-butyl)phenyl)ethoxy]quinoline]
pest or weed control at 400 ppm [1]: 20 to 89%
pest or weed control at 400 ppm [2]: 0 to 19%
pest or weed control at 400 ppm [3]: 0 to 19%
pest or weed control at 400 ppm [4]: 0 to 19%
pest or weed control at 400 ppm [5]: 0 to 19%
mortality at 200 ppm [6]: 0%
mortality at 400 ppm [6]: 0%
mortality at 200 ppm [7]: 90%
mortality at 400 ppm [7]: 40%
activity as miticides [7]: particularly excellent activity
mortality at 200 ppm [8]: 0%
mortality at 400 ppm [8]: 50%
mortality at 12 ppm (corn rootworm): 0%
mortality at 24 ppm (corn rootworm): 0%

CC(C)(C)c1ccc(CCOc2ccnc3cc(F)ccc23)cc1 [Example 232, 4-[2-(4-(t-butyl)phenyl)ethoxy]-7-fluoroquinoline]
pest or weed control at 400 ppm [1]: 0 to 19%
pest or weed control at 400 ppm [2]: 0 to 19%
pest or weed control at 400 ppm [3]: 0 to 19%
pest or weed control at 400 ppm [4]: 0 to 19%
pest or weed control at 400 ppm [5]: 0 to 19%
mortality at 200 ppm [6]: 0%
mortality at 400 ppm [6]: 30%
mortality at 200 ppm [7]: 100%
mortality at 400 ppm [7]: 80%
activity as miticides [7]: particularly excellent activity
mortality at 200 ppm [8]: 70%
mortality at 400 ppm [8]: 40%
mortality at 12 ppm (corn rootworm): 0%
mortality at 24 ppm (corn rootworm): 0%

Fc1cccc2c(OCCc3ccccc3-c3ccccc3)ccnc12 [Example 237, 8-fluoro-4-[2-(1,1'-biphenyl)-2-yl-ethoxy]quinoline]
pest or weed control at 400 ppm [1]: 90 to 100%
pest or weed control at 400 ppm [2]: 90 to 100%
pest or weed control at 400 ppm [3]: 20 to 89%
pest or weed control at 400 ppm [4]: 0 to 19%
pest or weed control at 400 ppm [5]: 0 to 19%
mortality at 200 ppm [6]: 0%
mortality at 400 ppm [6]: 0%
mortality at 200 ppm [7]: 0%
mortality at 400 ppm [7]: 100%
activity as miticides [7]: particularly excellent activity
mortality at 200 ppm [8]: 0%
mortality at 400 ppm [8]: 0%
mortality at 12 ppm (corn rootworm): 0%
mortality at 24 ppm (corn rootworm): 0%

FC(F)(F)c1ccc2c(OCCc3ccccc3)ccnc2c1 [Example 239, 4-(2-phenylethoxy)-7-(trifluoromethyl)quinoline]
pest or weed control at 400 ppm [1]: 90 to 100%
pest or weed control at 400 ppm [2]: 90 to 100%
pest or weed control at 400 ppm [3]: 90 to 100%
pest or weed control at 400 ppm [4]: 0 to 19%
pest or weed control at 400 ppm [5]: 90 to 100%
mortality at 200 ppm [6]: 0%
mortality at 400 ppm [6]: 0%
mortality at 200 ppm [7]: 0%
mortality at 400 ppm [7]: 0%
mortality at 200 ppm [8]: 0%
mortality at 400 ppm [8]: 0%
mortality at 12 ppm (corn rootworm): 0%
mortality at 24 ppm (corn rootworm): 0%

Fc1ccc(CCOc2ccnc3c(Cl)cccc23)cc1 [Example 240, 8-chloro-4-[2-(4-fluorophenyl)ethoxy]quinoline]
pest or weed control at 400 ppm [1]: 0 to 19%
pest or weed control at 400 ppm [2]: 20 to 89%
pest or weed control at 400 ppm [3]: 90 to 100%
pest or weed control at 400 ppm [4]: 0 to 19%
pest or weed control at 400 ppm [5]: 0 to 19%
mortality at 400 ppm [6]: 0%
mortality at 400 ppm [7]: 0%
mortality at 400 ppm [8]: 0%
mortality at 24 ppm (corn rootworm): 0%
